Experimental data reported in patent US20120053211A1, “TREATMENT OF PANCREATIC CANCER” (ARDEA BIOSCIENCES, INC., priority 2009, published 2012).
Where two headings read alike, the source gives them in different places.

Columns and labels:
tumor = assay: Tumor volume following administration of compound A (FIG. 3, FIG. 4); assay type: in vivo
[1] = system: human pancreatic cancer cell line BxPC3; assay: In vitro activity in human pancreatic cancer cell line BxPC3; assay type: cell-based; settings: read-out: EC50 (nM) (±standard deviation)
Procedure: The in vitro activity of compound A was determined in the human pancreatic cancer cell line BxPC3 (normal […] status). EC50 values were determined (in 1% FBS and with 45 mg/mL has), as follows

## COc1cc(F)c(F)c(Nc2ccc(I)cc2F)c1NS(=O)(=O)C1(C[C@H](O)CO)CC1 [Compound A, (S)-N-(3,4-difluoro-2-(2-fluoro-4-iodophenylamino)-6-methoxyphenyl)-1-(2,3-dihydroxypropyl)cyclopropane-1-sulfonamide]
tumor; FIG. 3
  tumor volume as a function of time: decrease in tumor volume
tumor; FIG. 4
  tumor volume as a function of time: decrease in tumor volume
[1]; BXPC-3, BxPC3, 1% FBS
  EC50: 15.8 ± 2.4 nM
[1]; BXPC-3, BxPC3, +45 mg/mL hSA
  EC50: 207 ± 29 nM
